How the values were obtained:
[1] = after intravenous infusion; cited from earlier work
[2] = Iron chelation activity (FeSO4/ferrozine, absorbance at 562 nm); type: biochemical; conditions: 100, 200 and 400 mM pure triethyl orthoacetate (Fig. 7)
Protocol: Negative controls and methanolicmicroalgae extracts (400 µl) were pipetted into 24 well plate, then 100 µl of 0.25mM FeSO4 solution (dissolved in methanol) was added. For the reaction initiation, 100 µl 5mM ferrozine dissolved in methanol was added. Solution was homogenized by pipetting and incubated for 10 minutes at room temperature. After incubation, it was analysed by using spectrophotometric measurement at 562nm wavelength. In vitro experiments with pure triethyl orthoacetate compound was also conducted with the concentrations of 100, 200 and 400 mM respectively. Same experimental protocol was used for pure triethyl orthoacetate as described in detail above for Spirulina platensis extract.

| SMILES | vascular half-life [1] | in vitro iron chelating activity [2] |
| --- | --- | --- |
| CC(=O)N(O)CCCCCNC(=O)CCC(=O)N(O)CCCCCNC(=O)CCC(=O)N(O)CCCCCN [deferoxamine] | 5 to 10 min | – |
| CCOC(C)(OCC)OCC [triethyl orthoacetate, Triethyl orthoacetate] | – | > 70% |

Reference: patent publication EP3295938B1, “USE OF TRIETHYL ORTHOACETATE IN THE TREATMENT OF METAL OVERLOAD DISEASES” (ÜSKÜDAR ÜNIVERSITESI, priority 2016, dated 2018)
